Data from article PMC9897788, “Design, synthesis and cytotoxic evaluation of novel bis-thiazole derivatives as preferential Pim1 kinase inhibitors with in vivo and in silico study” (Journal of Enzyme Inhibition and Medicinal Chemistry, 2023).
pIC50: −log10 of the molar value.

Experiments:
HCT-15 = assay: NCI 60 cell one-dose screening (SRB); type: cell-based; details: Homo sapiens; HCT-15, Colon Cancer; single dose 10 µM, 48 h; read-out: Percentage of cellular growth inhibition
In short: (§1)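 Absorbance of bound sulphorhodamine B at 515 nm served as the read-out after 48 h of treatment with 10 µM compound. Growth % used a time-zero plate (Tz) fixed at drug addition and the untreated control; inhibition % equals 100 minus that growth.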

HOP-92 = assay: NCI 60 cell one-dose screening (SRB); type: cell-based; details: Homo sapiens, HOP-92, 48 h, HOP-92, Non-Small Cell Lung Cancer, single dose 10 µM, read-out: Percentage of cellular growth inhibition
In short: as §1

NCI-H23 = assay: NCI 60 cell one-dose screening (SRB); type: cell-based; details: Homo sapiens; NCI-H23, Non-Small Cell Lung Cancer; single dose 10 µM, 48 h; read-out: Percentage of cellular growth inhibition
In short: as §1

OVCAR-3 = assay: NCI 60 cell one-dose screening (SRB); type: cell-based; details: Homo sapiens; OVCAR-3, Ovarian Cancer; single dose 10 µM, 48 h; read-out: Percentage of cellular growth inhibition
In short: as §1

MDA-MB-468 = assay: NCI 60 cell one-dose screening (SRB); type: cell-based; details: Homo sapiens; MDA-MB-468, Breast Cancer; single dose 10 µM, 48 h; read-out: Percentage of cellular growth inhibition
In short: as §1

SF-268 = assay: NCI 60 cell one-dose screening (SRB); type: cell-based; details: Homo sapiens; SF-268, CNS Cancer; single dose 10 µM, 48 h; read-out: Percentage of cellular growth inhibition
In short: as §1

T-47D = assay: NCI 60 cell one-dose screening (SRB); type: cell-based; details: Homo sapiens, T47D, 48 h, Breast Cancer, single dose 10 µM, read-out: Percentage of cellular growth inhibition
In short: as §1

SK-MEL-5 = assay: NCI 60 cell one-dose screening (SRB); type: cell-based; details: Homo sapiens; SK-MEL-5, Melanoma; single dose 10 µM, 48 h; read-out: Percentage of cellular growth inhibition
In short: as §1

SNB-75 = assay: NCI 60 cell one-dose screening (SRB); type: cell-based; details: Homo sapiens; SNB-75, CNS Cancer; single dose 10 µM, 48 h; read-out: Percentage of cellular growth inhibition
In short: as §1

OVCAR-4 = assay: NCI 60 cell one-dose screening (SRB); type: cell-based; details: Homo sapiens; OVCAR-4, Ovarian Cancer; single dose 10 µM, 48 h; read-out: Percentage of cellular growth inhibition
In short: as §1

SK-MEL-2 = assay: NCI 60 cell one-dose screening (SRB); type: cell-based; details: Homo sapiens; SK-MEL-2, Melanoma; single dose 10 µM, 48 h; read-out: Percentage of cellular growth inhibition
In short: as §1

RXF 393 = assay: NCI 60 cell one-dose screening (SRB); type: cell-based; details: Homo sapiens; RXF 393, Renal Cancer; single dose 10 µM, 48 h; read-out: Percentage of cellular growth inhibition
In short: as §1

K-562 = assay: NCI 60 cell one-dose screening (SRB); type: cell-based; details: Homo sapiens, K562; K-562, Leukemia; single dose 10 µM, 48 h; read-out: Percentage of cellular growth inhibition
In short: as §1

MCF7 = assay: NCI 60 cell one-dose screening (SRB); type: cell-based; details: Homo sapiens; MCF7, Breast Cancer; single dose 10 µM, 48 h; read-out: Percentage of cellular growth inhibition
In short: as §1

NCI-H322M = assay: NCI 60 cell one-dose screening (SRB); type: cell-based; details: Homo sapiens, Non-Small Cell Lung Cancer, single dose 10 µM, 48 h, read-out: Percentage of cellular growth inhibition
In short: as §1

SK-MEL-28 = assay: NCI 60 cell one-dose screening (SRB); type: cell-based; details: Homo sapiens; SK-MEL-28, Melanoma; single dose 10 µM, 48 h; read-out: Percentage of cellular growth inhibition
In short: as §1

SR = assay: NCI 60 cell one-dose screening (SRB); type: cell-based; details: Homo sapiens, Leukemia, single dose 10 µM, 48 h, read-out: Percentage of cellular growth inhibition
In short: as §1

LOX IMVI = assay: NCI 60 cell one-dose screening (SRB); type: cell-based; details: Homo sapiens, Melanoma, single dose 10 µM, 48 h, read-out: Percentage of cellular growth inhibition
In short: as §1

[1] = tested on: Breast T47D cancer cell line; assay: In vitro inhibition concentration of breast T47D cancer cell line; type: cell-based; details: Homo sapiens
Experimental: Cells were seeded and treated with a range of inhibitors concentration 39–10,000 nM after 24 h relative to DMSO. […]

Compound | inhibition at 10 µM (HCT-15) [%] | inhibition at 10 µM (HOP-92) [%] | inhibition at 10 µM (NCI-H23) [%] | inhibition at 10 µM (OVCAR-3) [%] | inhibition at 10 µM (MDA-MB-468) [%] | inhibition at 10 µM (SF-268) [%] | inhibition at 10 µM (T-47D) [%] | inhibition at 10 µM (SK-MEL-5) [%] | inhibition at 10 µM (SNB-75) [%] | inhibition at 10 µM (OVCAR-4) [%] | inhibition at 10 µM (SK-MEL-2) [%] | inhibition at 10 µM (RXF 393) [%] | inhibition at 10 µM (K-562) [%] | inhibition at 10 µM (MCF7) [%] | inhibition at 10 µM (NCI-H322M) [%] | inhibition at 10 µM (SK-MEL-28) [%] | inhibition at 10 µM (SR) [%] | inhibition at 10 µM (LOX IMVI) [%] | melting point [°C] | pIC50 ([1]; 48 h) | also measured
S=C(Nc1ccccc1)Nc1cccc(NC(=S)Nc2ccccc2)c1 [compound 7, 1,1′-(1,3-phenylene)bis(3-phenylthiourea)] | 0.8 | -15.7 | -5.7 | -6.1 | -8.4 | 3.3 | 6.3 | 1.5 | 7.9 | -6.6 | -35.3 | -16.6 | 9.7 | 8.5 | 2.6 | -9.8 |  |  |  |  | 
Clc1ccc(-c2cs/c(=N\c3ccccc3)n2-c2cccc(-n3c(-c4ccc(Cl)cc4)cs/c3=N\c3ccccc3)c2)cc1 [8c, N,N’-(3,3’-(1,3-phenylene)bis(4–(4-chlorophenyl)thiazole-3(3H)-yl-2(3H)-ylidene))dianiline] | -1.3 | 2.4 |  | -6.6 | 35.4 | 12.1 | 8.9 | 3.1 | 14.6 | 12 | -9.6 | 8.4 | 11.7 | 23.4 | -1.2 | -1 | 12.1 | 50.6 | 120 to 121 |  | 
c1ccc(-c2csc(Nc3cccc(Nc4nc(-c5ccccc5)cs4)c3)n2)cc1 [6a, N^1,N^3-bis(4-phenylthiazol-2-yl)benzene-1,3-diamine] | 69.5 | 56.3 | 63.2 | 46.8 | 60.8 | 59.4 |  | 79 | 51.4 | 62.4 | 35.1 | 36.2 | 73.4 | 84.4 | 41.9 | 39.1 |  |  | 92 to 94 | 5.18 | pIC50 ([1]; 96 h): 5.75
Cc1nc(Nc2cccc(Nc3nc(C)c(N=Nc4ccccc4)s3)c2)sc1N=Nc1ccccc1 [5a, N^1,N^3-bis(4-methyl-5-(phenyldiazenyl)thiazol-2-yl)benzene-1,3-diamine] | 21 | -4 | 14.7 | 26 | 29.4 | 42.4 | 48 | 8.5 | 38.4 | 30.8 | -6.7 | -4.4 | 32.9 | 52.4 | 22.8 | 2.5 |  |  | 115 to 116 | 4.98 | pIC50 ([1]; 96 h): 5.36
NC(=S)Nc1cccc(NC(N)=S)c1 [compound 2, 1,1′-(1,3-phenylene)bis(thiourea)] | 4.9 | -4.5 | 1.5 | 11.5 | 13.5 | 9.1 | 13.2 | 8.6 | 2.4 | 5.4 | -11.7 | -3.8 | 90.7 | 8.3 | 11.7 | -3.8 |  |  |  |  | 
c1ccc(/N=c2\scc(-c3ccccc3)n2-c2cccc(-n3c(-c4ccccc4)cs/c3=N\c3ccccc3)c2)cc1 [8a, N,N’-(3,3’-(1,3-phenylene)bis(4-phenylthiazole-3(3H)-yl-2(3H)-ylidene))dianiline] | -4.7 | 14.5 |  | -3.6 | 9 | 0.3 | 10.2 | 4 | 11.7 | 5.3 | 12.6 | 10.3 | 7.8 | 18 | 1.8 | -3.6 | 6.1 | 22.6 | 110 to 111 |  | 
Fc1ccc(-c2cs/c(=N\c3ccccc3)n2-c2cccc(-n3c(-c4ccc(F)cc4)cs/c3=N\c3ccccc3)c2)cc1 [8b, N,N’-(3,3’-(1,3-phenylene)bis(4–(4-fluorophenyl)thiazole-3(3H)-yl-2(3H)-ylidene))dianiline] | 21.7 | 22 |  | 4.1 | 51.2 | 8.7 | 51 | 9.3 | 15.4 | 34.7 | 22.2 | 11.6 | 28.8 | 42.9 | 15.2 | 1.7 | 36.1 | 23.9 |  | 5.01 | pIC50 ([1]; 96 h): 5.58
Fc1ccc(-c2csc(Nc3cccc(Nc4nc(-c5ccc(F)cc5)cs4)c3)n2)cc1 [6b, N^1,N^3-bis(4–(4-fluorophenyl)thiazol-2-yl)benzene-1,3-diamine] | 47.5 | 60.8 |  | 42.5 | 61.4 | 42.1 |  | 38.8 | 4.8 | 44.3 | 65.3 | 24.5 | 64 | 75.3 | 39.9 | 23.6 | 48.6 | 60.7 | 80 to 83 | 5.23 | pIC50 ([1]; 96 h): 5.79
